Laboratory results from PubChem BioAssay AID651650 (Sanford-Burnham Center for Chemical Genomics, 2012).
Calls of active or inactive are those of the source.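 Rule for the calls: active = mean IC50 below 20 µM in each of the two panels, so potent in both; inactive = the rest.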

target: Neuropilin-1 (Homo sapiens) (UniProt O14786); experiment: blockers of CendR peptide binding to NRP-1 – biochemical, FP and AlphaScreen panel, dose response (AID 651650); settings: NRP-1 b1b2 / RPARPAR peptide binding, FP or AlphaScreen; AlphaScreen, mean of runs
Sequence (O14786 whole entry, looked up): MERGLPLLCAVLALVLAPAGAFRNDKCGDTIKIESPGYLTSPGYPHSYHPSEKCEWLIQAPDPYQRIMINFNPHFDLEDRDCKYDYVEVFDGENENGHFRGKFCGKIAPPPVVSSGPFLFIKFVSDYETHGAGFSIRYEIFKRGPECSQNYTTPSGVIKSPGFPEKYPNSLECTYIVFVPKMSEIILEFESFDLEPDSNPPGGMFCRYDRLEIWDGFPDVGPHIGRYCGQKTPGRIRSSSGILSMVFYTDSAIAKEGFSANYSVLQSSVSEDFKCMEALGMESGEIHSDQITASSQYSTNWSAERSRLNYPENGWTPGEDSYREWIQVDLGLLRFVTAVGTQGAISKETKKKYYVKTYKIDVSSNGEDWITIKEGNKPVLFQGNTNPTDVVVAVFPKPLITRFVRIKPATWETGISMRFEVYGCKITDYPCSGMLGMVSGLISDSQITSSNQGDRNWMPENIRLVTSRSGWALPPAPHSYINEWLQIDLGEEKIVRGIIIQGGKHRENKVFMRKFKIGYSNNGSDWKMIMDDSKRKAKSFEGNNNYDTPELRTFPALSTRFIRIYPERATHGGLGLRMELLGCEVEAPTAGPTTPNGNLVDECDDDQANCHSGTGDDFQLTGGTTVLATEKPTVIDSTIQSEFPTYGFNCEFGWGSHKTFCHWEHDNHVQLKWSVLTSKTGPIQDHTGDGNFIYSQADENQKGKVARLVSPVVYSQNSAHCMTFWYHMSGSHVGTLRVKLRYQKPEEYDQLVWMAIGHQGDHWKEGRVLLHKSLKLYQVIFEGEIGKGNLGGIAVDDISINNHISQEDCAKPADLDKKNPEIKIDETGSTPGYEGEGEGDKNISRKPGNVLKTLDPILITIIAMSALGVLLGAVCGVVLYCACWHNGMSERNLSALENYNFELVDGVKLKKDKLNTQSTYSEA

Compound | IC50
CCOC(=O)N1CCN(C(=O)c2cc3n(n2)C(C(F)(F)F)CC(c2ccc4c(c2)OCO4)N3)CC1 (stereo unspecified) | > 100 µM (inactive)
O=C(CSc1nc(O)c(Cc2ccccc2)c(=O)n1-c1ccccc1)N1CCOCC1 | > 100 µM (inactive)
CC(C)(C)n1nc(-c2ccc(F)cc2)c2c(N)ncnc21 | > 100 µM (inactive)
COc1ccc(-c2cc(C)no2)cc1S(=O)(=O)NCc1cccc(C)c1 | > 100 µM (inactive)
Cc1cnc(C(=O)OCC(=O)Nc2sc3c(c2C#N)CCC3)cn1 | > 100 µM (inactive)
Cc1ccc(C(=O)O)cc1NC(=O)Nc1cccc2ccccc12 | > 100 µM (inactive)
CCNC(=O)C1(C)CCCN(C(=O)c2nc(C)oc2C)C1 (stereo unspecified) | > 100 µM (inactive)
O=S(=O)(c1cc(Cl)cc(Cl)c1)N1Cc2cc(-c3ccccc3)ccc2-n2nncc2C1 | > 100 µM (inactive)
COc1ccc(-c2csc(NC(CO)c3nc4ccccc4n3CCCO)n2)cc1 (stereo unspecified) | > 100 µM (inactive)
CC(C)(C)OC(=O)NCc1ccc(CNC(=O)c2nc[nH]c2C(=O)N2CCN(C(=O)OC(C)(C)C)CC2)cc1 | > 100 µM (inactive)
CC(=O)OC[C@@H]1CN(Cc2cccc(C(F)(F)F)c2)C[C@H](n2cnc3c(NCc4ccco4)ncnc32)O1 | inactive
CCCNC(=O)[C@H]1N2C(=O)c3c(ccc(OC)c3OC)C2SC1(C)C (stereo partly specified) | inactive
COc1ccc(C2CC(C(F)(F)F)n3nc(C(=O)O)c(Cl)c3N2)cc1OC (stereo unspecified) | > 100 µM (inactive)
CC(CN1CCCCC1)OC(=O)c1ccc(Cl)cc1Cl (stereo unspecified) | > 100 µM (inactive)
Cc1nc2c(OCCC3CCCCC3)cccn2c1N(C)C(=O)CCC1CCCC1 | > 100 µM (inactive)
O=C(Nc1cc(C(F)(F)F)ccc1N1CCCC1)C1CC(=O)N(Cc2ccccc2)C1 (stereo unspecified) | > 100 µM (inactive)
CCOC(=O)C1(O)CC(C)=NN1C(=O)c1cccc(Br)c1 (stereo unspecified) | > 100 µM (inactive)
CC1(C)c2ccccc2C(=O)c2ccccc21 | > 100 µM (inactive)
CC1CCC(NC(=O)C2CCC(CNS(=O)(=O)c3cccc4cccnc34)CC2)CC1 (stereo unspecified) | > 100 µM (inactive)
COc1cc(C(=O)OCCCOC(=O)c2cc(OC)c(OC)c(OC)c2)cc(OC)c1OC | > 100 µM (inactive)
COc1ccc(C2CC(O)(c3ccccc3)Oc3cc(OC)ccc32)cc1 (stereo unspecified) | > 100 µM (inactive)
O=C(NNC(=O)c1ccccc1Cl)c1cccnc1 | 19.2 µM
O=C(NCCN1CCOCC1)c1cc(-c2ccc(F)cc2)on1 | > 100 µM (inactive)

Compound | IC50
O=C(CCC(=O)Nc1ccccc1Cl)NN=C1CCCC1 | inactive
CNC(=O)NC(=O)C(C)OC(=O)c1c(C)noc1C (stereo unspecified) | inactive
CCOC(=O)Cc1cnc(NC(=O)NC(C(=O)OCC)(c2ccccc2)C(F)(F)F)s1 (stereo unspecified) | inactive
COc1ccc(-c2csc(NCCc3nc4cc(C(=O)NCCCO)ccc4n3Cc3ccc(C)cc3)n2)cc1 | inactive
Cc1c(NP(=O)(C(C)(C)C)C(C)(C)C)c(=O)n(-c2ccccc2)n1C | > 100 µM (inactive)
Cc1ccccc1Nc1nc(N)nc(COC(=O)CC2CC3CCC2C3)n1 (stereo unspecified) | > 100 µM (inactive)
O=C(NNC(=O)C1CCN(c2ncccn2)CC1)c1ccc(F)cc1 | > 100 µM (inactive)
COC(=O)c1c(NC(=O)CN(c2ccccc2)S(C)(=O)=O)sc2c1CCCC2 | 15.5 µM
COC(=O)c1ccc(Cn2nnc3c(=O)[nH]c(C4CCCN(S(=O)(=O)c5cccc(Cl)c5)C4)nc32)cc1 (stereo unspecified) | > 100 µM (inactive)
COc1ccc(Cn2c3ccc(OC)cc3c3nc4ccccc4nc32)cc1 | inactive
CC(=O)Nc1ccc2nc3c(=O)n(C)c(=O)n(C)c3nc2c1 | inactive
CSc1nc2ccccc2c(=O)n1C1CCOC(C)(C)C1 (stereo unspecified) | > 100 µM (inactive)
CCCNC(=S)Nc1cccc(C(F)(F)F)c1 | > 100 µM (inactive)
CN(C)CCn1c(=O)n(-c2ccc(F)cc2)c(=O)c2c3c(sc21)CCCCC3 | inactive
Cc1csc(NC(C)c2nc3cc(C(F)(F)F)ccc3n2CCCO)n1 (stereo unspecified) | 8.6 µM
CCN(C[C@H]1N[C@@](CC)(C(=O)OC)[C@H]2C(=O)N(C)C(=O)[C@@H]12)S(=O)(=O)c1ccc(OC)cc1 | > 100 µM (inactive)
O=C1CCCN1CCCNc1nc(NCc2cccs2)nc2ccsc12 | inactive
CCc1onc(C)c1C(=O)Nc1cc(C)ccc1OC | 16 µM
Cn1cnc2cc(NC(=O)c3ccco3)ccc21 | 18.5 µM
O=C(CCCNC(=O)/C(=C\c1ccc(F)cc1)NC(=O)c1ccccc1)OCc1ccccc1 | > 100 µM (inactive)
CC(C)(C)N(NC(=O)Nc1ccc(Cl)cc1)C(=O)c1ccccc1 | > 100 µM (inactive)
O=C(COc1ccc(Br)cc1CO)Nc1ccc(F)cc1 | > 100 µM (inactive)

same assay, conditions: NRP-1 b1b2 / RPARPAR peptide binding, FP or AlphaScreen; AlphaScreen, run 1; individual panel run IC50

Compound | IC50 [µM]
CCOC(=O)N1CCN(C(=O)c2cc3n(n2)C(C(F)(F)F)CC(c2ccc4c(c2)OCO4)N3)CC1 (stereo unspecified) | > 100
O=C(CSc1nc(O)c(Cc2ccccc2)c(=O)n1-c1ccccc1)N1CCOCC1 | > 100
CC(C)(C)n1nc(-c2ccc(F)cc2)c2c(N)ncnc21 | > 100
COc1ccc(-c2cc(C)no2)cc1S(=O)(=O)NCc1cccc(C)c1 | > 100
Cc1cnc(C(=O)OCC(=O)Nc2sc3c(c2C#N)CCC3)cn1 | > 100
Cc1ccc(C(=O)O)cc1NC(=O)Nc1cccc2ccccc12 | > 100
CCNC(=O)C1(C)CCCN(C(=O)c2nc(C)oc2C)C1 (stereo unspecified) | > 100
O=S(=O)(c1cc(Cl)cc(Cl)c1)N1Cc2cc(-c3ccccc3)ccc2-n2nncc2C1 | > 100
COc1ccc(-c2csc(NC(CO)c3nc4ccccc4n3CCCO)n2)cc1 (stereo unspecified) | > 100
CC(C)(C)OC(=O)NCc1ccc(CNC(=O)c2nc[nH]c2C(=O)N2CCN(C(=O)OC(C)(C)C)CC2)cc1 | > 100
CC(=O)OC[C@@H]1CN(Cc2cccc(C(F)(F)F)c2)C[C@H](n2cnc3c(NCc4ccco4)ncnc32)O1 | 87.9
